From ChEMBL document CHEMBL1131842, “Synthesis and estrogen receptor binding affinity of a porphyrin-estradiol conjugate for targeted photodynamic therapy of cancer” (Bioorg Med Chem Lett, 1999)

Target: Estrogen receptor (Homo sapiens, UniProt Q92731+P03372)
Assay: Displacement of [3H]estradiol from estrogen receptor-ligand binding domain
Assay type: protein assay

EC50: 0.274 µM
SMILES: C[C@]12CC(CCOC(=O)CCCNC(=O)c3ccc(-c4c5ccc([nH]5)c(-c5ccccc5)c5nc(c(-c6ccccc6)c6nc(c(-c7ccccc7)c7ccc4[nH]7)C=C6)C=C5)cc3)[C@@H]3c4ccc(O)cc4CC[C@H]3[C@@H]1CCC2O (stereo partly specified)
